ChEMBL document CHEMBL1955850, “Syntheses of structurally-simplified and fluorescently-labeled neovibsanin derivatives and analysis of their neurite outgrowth activity in PC12 cells” (2012)
Activity calls are given as the source filed them. No cut-off for these calls is given here.

Tests used:
[1] = system: PC-12; assay: Neuritogenic activity in rat PC12 cells assessed as potentiation of 10 ng/ml NGF-induced neurite outgrowth at 40 uM after 4 days (reference value: 75.89 um); type: functional
[2] = system: PC-12; assay: Neuritogenic activity in rat PC12 cells assessed as potentiation of 10 ng/ml NGF-induced neurite outgrowth at 10 uM after 4 days NGF (reference value: 75.89 um); type: functional
[3] = system: PC-12; assay: Neuritogenic activity in rat PC12 cells assessed as appearance of short prominences at 40 uM after 48 hrs in presence of 10 ng/ml NGF; type: functional, cell-based
[4] = system: PC-12; assay: Neuritogenic activity in rat PC12 cells assessed as potentiation of 10 ng/ml NGF-induced neurite outgrowth at 40 uM after 96 hrs; type: functional, cell-based
[5] = system: PC-12; assay: Neuritogenic activity in rat PC12 cells assessed as change in cell morphology at 40 uM up to 24 hrs in presence of 10 ng/ml NGF; type: functional, cell-based
[6] = system: PC-12; assay: Neuritogenic activity in rat PC12 cells assessed as elongation of prominences at 40 uM after 72 hrs in presence of 10 ng/ml NGF; type: functional, cell-based
[7] = system: PC-12; assay: Neuritogenic activity in rat PC12 cells assessed as potentiation of 10 ng/ml NGF-induced neurite outgrowth at 1 uM after 4 days (reference value: 75.89 um); type: functional
[8] = system: PC-12; assay: Neuritogenic activity in rat PC12 cells assessed as potentiation of 20 ng/ml NGF-induced neurite outgrowth at 10 uM; type: functional, cell-based

Structure (SMILES) | Activity [1] [um] | Activity [2] [um] | Activity [8] | other results
CCCCO[C@]1(C)C[C@@H]2OCC3=CCCC[C@]32O1 | 72.88 | 55.82 |  | 
CCO[C@]1(C)C[C@@H]2OCC3=CCCC[C@]32O1 | 112.5 | 92.24 |  | 
CCCO[C@@]1(C)C[C@@H]2OCC3=CCCC[C@]32O1 | 84.11 | 75.46 |  | 
COC1(C)C[C@@H]2OCC3=CCC[C@@H](CCOC(=O)Cc4cc(=O)oc5cc(N(C)C)ccc45)[C@]32O1 (stereo partly drawn) |  |  |  | Activity [3]: Active; Activity [4]: Active; Activity [5]: inactive; Activity [6]: Active
CO[C@@]1(C)C[C@@H]2OCC3=CCCC[C@]32O1 | 122.4 | 101.6 | Active | Activity [7]: 91.58 um
CC(C)=CCOC1(C)C[C@@H]2OCC3=CCCC[C@]32O1 (stereo partly drawn) |  |  | inactive | 
CCO[C@@]1(C)C[C@@H]2OCC3=CCCC[C@]32O1 | 105.8 | 86.03 |  | 
CO[C@]1(C)C[C@@H]2OCC3=CCCC[C@]32O1 | 125.5 | 110.9 | Active | Activity [7]: 99.5 um
CCCO[C@]1(C)C[C@@H]2OCC3=CCCC[C@]32O1 | 76.62 | 65.35 |  | 
C=CCOC1(C)C[C@@H]2OCC3=CCCC[C@]32O1 (stereo partly drawn) |  |  | inactive | 
CCCCO[C@@]1(C)C[C@@H]2OCC3=CCCC[C@]32O1 | 61.81 | 47.69 |  | 
CC1(OC/C=C/c2ccccc2)C[C@@H]2OCC3=CCCC[C@]32O1 (stereo partly drawn) |  |  | inactive | 
CC1(OCc2ccccc2)C[C@@H]2OCC3=CCCC[C@]32O1 (stereo partly drawn) |  |  | inactive | 
